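In this assay, cells in 96-well plates receive the compound at five concentrations for 48 hours. Endpoints are linearly interpolated between the surrounding concentrations. TGI is the concentration that stops growth completely.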
Columns and labels:
Experiment in all cases: NCI-60 cell line screen, 48 h
SK-MEL-2 melanoma = test system: SK-MEL-2 melanoma
K-562 leukemia = test system: K-562 leukemia
MDA-MB-435 = test system: MDA-MB-435
SF-268 CNS = test system: SF-268 CNS
HCT-116 colon = test system: HCT-116 colon
SK-MEL-5 melanoma = test system: SK-MEL-5 melanoma
SW-620 colon = test system: SW-620 colon
UACC-62 melanoma = test system: UACC-62 melanoma
OVCAR-5 ovarian = test system: OVCAR-5 ovarian
NCI-H23 lung = test system: NCI-H23 lung
SN12C renal = test system: SN12C renal
HOP-92 NSCLC = test system: HOP-92 NSCLC
TK-10 renal = test system: TK-10 renal
ACHN renal = test system: ACHN renal
NCI/ADR-RES ovarian = test system: NCI/ADR-RES ovarian
HOP-62 NSCLC = test system: HOP-62 NSCLC
UO-31 renal = test system: UO-31 renal
HS 578T breast = test system: HS 578T breast
HCT-15 colon = test system: HCT-15 colon
MDA-N = test system: MDA-N
NCI-H522 lung = test system: NCI-H522 lung
DU-145 prostate = test system: DU-145 prostate
786-0 renal = test system: 786-0 renal
OVCAR-3 ovarian = test system: OVCAR-3 ovarian
NCI-H460 lung = test system: NCI-H460 lung
M14 melanoma = test system: M14 melanoma
HCC-2998 colon = test system: HCC-2998 colon
IGROV1 ovarian = test system: IGROV1 ovarian
MCF7 breast = test system: MCF7 breast
SF-539 CNS = test system: SF-539 CNS
MALME-3M melanoma = test system: MALME-3M melanoma
RXF 393 renal = test system: RXF 393 renal
SNB-19 CNS = test system: SNB-19 CNS
A549 NSCLC = test system: A549 NSCLC
EKVX NSCLC = test system: EKVX NSCLC
CAKI-1 renal = test system: CAKI-1 renal
SK-MEL-28 melanoma = test system: SK-MEL-28 melanoma
PC-3 prostate = test system: PC-3 prostate
NCI-H226 lung = test system: NCI-H226 lung
RPMI-8226 leukemia = test system: RPMI-8226 leukemia
SF-295 CNS = test system: SF-295 CNS
HT29 colon = test system: HT29 colon
U251 CNS = test system: U251 CNS
OVCAR-8 ovarian = test system: OVCAR-8 ovarian
SR leukemia = test system: SR leukemia
BT-549 breast = test system: BT-549 breast
MOLT-4 leukemia = test system: MOLT-4 leukemia
SK-OV-3 ovarian = test system: SK-OV-3 ovarian
KM12 colon = test system: KM12 colon
MDA-MB-231 breast = test system: MDA-MB-231 breast
OVCAR-4 ovarian = test system: OVCAR-4 ovarian
A498 renal = test system: A498 renal
SNB-75 CNS = test system: SNB-75 CNS
LOX IMVI melanoma = test system: LOX IMVI melanoma
UACC-257 melanoma = test system: UACC-257 melanoma
COLO 205 colon = test system: COLO 205 colon
CCRF-CEM leukemia = test system: CCRF-CEM leukemia
HL-60(TB) leukemia = test system: HL-60(TB) leukemia

Measured: TGI

CCOC(=O)C(NC(=O)NC(C(=O)OCC)C(=O)OCC)C(=O)OCC
not listed: KM12 colon | MDA-MB-231 breast | OVCAR-4 ovarian | A498 renal | SNB-75 CNS | LOX IMVI melanoma | UACC-257 melanoma | COLO 205 colon | CCRF-CEM leukemia | HL-60(TB) leukemia
> 100 µM: all other assays above

CN1C(=O)C(O)CC1c1cccc(F)c1 (stereo not drawn)
not listed: SF-268 CNS | TK-10 renal | HS 578T breast
> 100 µM: all other assays above
